Reference: PubChem BioAssay (NCI)
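All cell lines were grown in 96-well plates and treated with compound for 48 hours. At the TGI there is no net growth.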

Legend:
Assay in all cases: inhibition of tumour cell growth, NCI panel, 48 h
[1] = tested on: 786-0 renal
[2] = tested on: A498 renal
[3] = tested on: A549 NSCLC
[4] = tested on: ACHN renal
[5] = tested on: CAKI-1 renal
[6] = tested on: CCRF-CEM leukemia
[7] = tested on: COLO 205 colon
[8] = tested on: DLD-1 colon
[9] = tested on: DMS 114 small cell lung
[10] = tested on: DMS 273 small cell lung
[11] = tested on: EKVX NSCLC
[12] = tested on: HCC-2998 colon
[13] = tested on: HCT-116 colon
[14] = tested on: HCT-15 colon
[15] = tested on: HOP-62 NSCLC
[16] = tested on: HT29 colon
[17] = tested on: IGROV1 ovarian
[18] = tested on: K-562 leukemia
[19] = tested on: KM12 colon
[20] = tested on: KM20L2 colon
[21] = tested on: LOX IMVI melanoma
[22] = tested on: LXFL 529 NSCLC
[23] = tested on: M14 melanoma
[24] = tested on: MALME-3M melanoma
[25] = tested on: MOLT-4 leukemia
[26] = tested on: NCI-H226 lung
[27] = tested on: NCI-H460 lung
[28] = tested on: NCI-H522 lung
[29] = tested on: OVCAR-3 ovarian
[30] = tested on: OVCAR-5 ovarian
[31] = tested on: OVCAR-8 ovarian
[32] = tested on: RPMI-8226 leukemia
[33] = tested on: RXF 393 renal
[34] = tested on: RXF-631 renal
[35] = tested on: SF-268 CNS
[36] = tested on: SF-295 CNS
[37] = tested on: SF-539 CNS
[38] = tested on: SK-MEL-2 melanoma
[39] = tested on: SK-MEL-5 melanoma
[40] = tested on: SK-OV-3 ovarian
[41] = tested on: SN12C renal
[42] = tested on: SNB-19 CNS
[43] = tested on: SNB-75 CNS
[44] = tested on: SNB-78 CNS
[45] = tested on: SW-620 colon
[46] = tested on: TK-10 renal
[47] = tested on: U251 CNS
[48] = tested on: UACC-257 melanoma
[49] = tested on: UACC-62 melanoma
[50] = tested on: UO-31 renal
[51] = tested on: XF 498 CNS

Measured: TGI

O=c1cc(O)cc2n1CCC2
> 100 µM: all assays above
